Patent US10961200B2, “Small molecule inhibitors of lactate dehydrogenase and methods of use thereof” (THE UNITED STATES OF AMERICA, AS REPRESENTED BY THE …, priority 2014, dated 2021)

Target: Human LDHA (Homo sapiens (Human), UniProt P00338)
Test: human LDHA primary biochemical assay (resazurin/diaphorase coupled, fluorescence)
Conditions: LDHA inhibitory activity, activity level based on IC50 (Table 7)
Source text: Test compounds were placed in a Greiner Bio-One (Monroe, N.C.) 1536-well black solid bottom assay plate. 200 millimolar (mM) Tris HCl, pH 7.4, 100 micromolar […] EDTA and 0.01% TWEEN-20™, final concentration, was used as the assay buffer. The LDHA reagent was 2 nanomolar (nM) Human LDHA (Meridian Life Science, Inc., Memphis, Tenn.), final concentration, in assay buffer.

First: CCOC(=O)c1csc(-n2nc(-c3ccc(F)c(C#Cc4ccc(C)s4)c3)c(Cc3ccc(S(N)(=O)=O)c(F)c3)c2CC2CC2)n1 [Compound 447]
Second: NS(=O)(=O)c1ccc(Cc2c(-c3cccc(OCc4ccccc4)c3)nn(-c3nc(C(=O)O)cs3)c2CC2CC2)cc1F [Compound 340]
The IC50 of the first is higher: > 57 µM for the first, < 0.1 µM for the second. The second is the more potent here.

First: Nc1cccc(-c2cccc(-c3nn(-c4nc(C(=O)O)cs4)cc3Cc3ccc(S(N)(=O)=O)cc3)c2)c1 [Compound 524, 2-(3-(3′-amino-[1,1′-biphenyl]-3-yl)-4-(4-sulfamoylbenzyl)-1H-pyrazol-1-yl)thiazole-4-carboxylic acid]
Second: O=C(O)c1csc(-n2nc(-c3ccc(F)cc3)cc2O)n1 [Compound 425]
The IC50 of the first is lower: 0.1 to 1 µM for the first, > 57 µM for the second. The first is the more potent here.

Same assay, conditions: LDHA inhibitory activity, assay of Example 1; activity level classes

`CCOC(=O)c1csc(-n2nc(C3CC3)c(Cc3ccc(S(N)(=O)=O)cc3)c2-c2cccc(-c3ccccc3)c2)n1` [Compound 180, ethyl 2-(5-([1,1′-biphenyl]-3-yl)-3-cyclopropyl-4-(4-sulfamoylbenzyl)-1H-pyrazol-1-yl)thiazole-4-carboxylate] and `CCOC(=O)c1csc(-n2nc(-c3ccccc3)c(Cc3ccc(S(N)(=O)=O)cc3)c2CC#N)n1` [Compound 135, ethyl 2-(5-(cyanomethyl)-3-phenyl-4-(4-sulfamoylbenzyl)-1H-pyrazol-1-yl)thiazole-4-carboxylate] cannot be ordered by IC50: > 57 µM for the first, > 57 µM for the second.

Compared with `NC(=O)c1ccc(Cc2c(-c3cccc(-c4ccccc4)c3)nn(-c3nc(C(=O)O)cs3)c2O)cc1` [Compound 67, 2-(3-([1,1′-biphenyl]-3-yl)-4-(4-carbamoylbenzyl)-5-hydroxy-1H-pyrazol-1-yl)thiazole-4-carboxylic acid], `N[S+](=O)([O-])c1ccc(Cc2c(-c3cccc(-c4cccc(F)c4)c3)nn(-c3nc(C(=O)O)cs3)c2C(F)(F)F)cc1` [Compound 313] is lower in IC50: > 57 µM for the first, < 0.1 µM for the second.

`O=C(O)c1csc(-n2nc(-c3ccc(F)c(Cc4ccccc4)c3)cc2O)n1` [Compound 104, 2-(3-(3-benzyl-4-fluorophenyl)-5-hydroxy-1H-pyrazol-1-yl)thiazole-4-carboxylic acid] and `O=C(O)c1csc(-n2nc(-c3ccc(CCNS(=O)(=O)C4CC4)c(F)c3)cc2O)n1` [Compound 112, 2-(3-(4-(2-(cyclopropanesulfonamido)ethyl)-3-fluorophenyl)-5-hydroxy-1H-pyrazol-1-yl)thiazole-4-carboxylic acid] cannot be ordered by IC50: > 57 µM for the first, > 57 µM for the second.

`CCOC(=O)c1csc(-n2nc(-c3ccc(F)c(-c4cccc(OC)c4)c3)c(Cc3ccc(S(N)(=O)=O)c(F)c3)c2CC2CC2)n1` [Compound 322] and `CCOC(=O)c1csc(-n2nc(-c3ccc(F)c(-c4ccc(C)cc4)c3)c(Cc3ccc(S(N)(=O)=O)c(F)c3)c2C2CC2)n1` [Compound 245] fall in the same range of IC50: 1 to 57 µM for the first, 1 to 57 µM for the second.

Going from `NS(=O)(=O)c1ccc(Cc2c(-c3ccc(F)c(-c4cccc(F)c4)c3)nn(-c3nc(C(=O)O)cs3)c2C(F)(F)F)cc1` [Compound 241] to `COC(=O)c1cnc(-n2nc(-c3ccccc3)c(Cc3ccc(S(N)(=O)=O)cc3)c2N)nc1C(F)(F)F` [Compound 190, methyl 2-(5-amino-3-phenyl-4-(4-sulfamoylbenzyl)-1H-pyrazol-1-yl)-4-(trifluoromethyl)pyrimidine-5-carboxylate], the IC50 rises from < 0.1 µM to > 57 µM. The first is the more potent here.

Same assay, conditions: read-out: Inhibitory activity IC50

Compared with `O=C(O)c1csc(-n2nc(-c3ccc(F)cc3F)cc2O)n1` [Compound 97, 2-(3-(2,4-difluorophenyl)-5-hydroxy-1H-pyrazol-1-yl)thiazole-4-carboxylic acid], `NS(=O)(=O)c1ccc(Cc2cn(-c3nc(C(=O)O)cs3)c3ccc(F)cc23)cc1` [Compound 31, 2-(5-fluoro-3-(4-sulfamoylbenzyl)-1H-indol-1-yl)thiazole-4-carboxylic acid] is lower in IC50: > 57 µM for the first, 0.1 to 1 µM for the second.

`N[S+](=O)([O-])c1ccc(Cc2c(CC3CC3)nn(-c3nc(C(=O)O)cs3)c2-c2ccc(F)c(-c3cccc(F)c3)c2)cc1` [Compound 238] and `NS(=O)(=O)c1ccc(Oc2c(C3CC3)nn(-c3nc(C(=O)O)cs3)c2-c2ccccc2)cc1` [Compound 165] fall in the same range of IC50: 1 to 57 µM for the first, 1 to 57 µM for the second.
